# Data published in US6737383B1, “Herbicidal oxadiazolidines” (priority 1999, dated 2004).
# Columns and labels:
# blackgrass = assay: Test B pre/postemergence blackgrass; format: in vivo, Alopecurus myosuroides
# In short: (§1)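 Herbicidal effect was estimated by eye on a ten-point control scale after plants spent twelve to sixteen days in a greenhouse following soil or foliar treatment. Foliar sprays targeted plants at one to four leaves; all doses were formulated in a non-phytotoxic solvent with surfactant.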
# wild oat = assay: Test B pre/postemergence wild oat; format: in vivo, Avena fatua
# In short: as §1
# giant foxtail = assay: Test B pre/postemergence giant foxtail; format: in vivo, Setaria faberii
# In short: as §1
# cocklebur = assay: Test B pre/postemergence cocklebur; format: in vivo, Xanthium strumarium
# In short: as §1
# bedstraw = assay: Test B pre/postemergence bedstraw; format: in vivo, Galium aparine
# In short: as §1
# soybean = assay: Test B pre/postemergence soybean; format: in vivo, Glycine max
# In short: as §1
# wheat = assay: Test B pre/postemergence wheat; format: in vivo, Triticum aestivum
# In short: as §1
# surinam grass = assay: Test B pre/postemergence surinam grass; format: in vivo, Brachiaria decumbens
# In short: as §1
# smallflower flatsedge = assay: Test B flood test smallflower flatsedge; format: in vivo, Cyperus difformis
# In short: (§2)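 Flood test on plants grown to the 2-leaf stage; treated plants kept in greenhouse twelve to sixteen days, then visually rated against controls on a 0 (no effect) to 10 (complete control) scale.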
# morningglory = assay: Test B pre/postemergence morningglory; format: in vivo, Ipomoea hederacea
# In short: as §1
# corn = assay: Test B pre/postemergence corn; format: in vivo, Zea mays
# In short: as §1
# bamyardgrass = assay: Test B flood test barnyardgrass; format: in vivo, Echinochloa crus-galli
# In short: as §2
# rape = assay: Test B pre/postemergence rape; format: in vivo, Brassica napus
# In short: as §1
# duck salad = assay: Test B flood test duck salad; format: in vivo, Heteranthera limosa
# In short: as §2
# velvetleaf = assay: Test B pre/postemergence velvetleaf; format: in vivo, Abutilon theophrasti
# In short: as §1
# crabgrass = assay: Test B pre/postemergence crabgrass; format: in vivo, Digitaria sanguinalis
# In short: as §1
# [1] = Preemergence, Rate 62 g/ha, scale of 0 to 10 where 0 is no effect and 10 is complete control
# [2] = Preemergence, Rate 250 g/ha, scale of 0 to 10 where 0 is no effect and 10 is complete control
# [3] = Preemergence, Rate 500 g/ha, scale of 0 to 10 where 0 is no effect and 10 is complete control
# [4] = Rate 62 g/ha, Postemergence, scale 0 to 10, 0 no effect, 10 complete control
# [5] = Rate 125 g/ha, Postemergence, scale of 0 to 10 where 0 is no effect and 10 is complete control
# [6] = Rate 125 g/ha, Preemergence, scale of 0 to 10 where 0 is no effect and 10 is complete control
# [7] = Rate 250 g/ha, Postemergence, scale of 0 to 10 where 0 is no effect and 10 is complete control
# [8] = Rate 500 g/ha, Postemergence, scale 0 to 10, 0 no effect, 10 complete control
# [9] = Rate 62 g/ha, headed Pre-emergence (flood test species), scale 0 to 10 (0 no effect, 10 complete control)
# [10] = Rate 125 g/ha, Pre-emergence, flood test species, scale 0 to 10 where 0 is no effect and 10 is complete control
# [11] = Rate 250 g/ha, Pre-emergence, flood-test species, scale 0 to 10, 0 is no effect, 10 is complete control
# [12] = Rate 500 g/ha, Pre-emergence, flood test species, scale 0 to 10 (0 no effect, 10 complete control)
compound,measurement,setting,value
CCC=CCn1c(=O)on(C(=O)N(c2ccc(F)cc2)C(C)C)c1=O [Compound 286],Blackgrass plant response rating,blackgrass; [1],0
same,Blackgrass plant response rating,blackgrass; [2],7
same,"Plant response rating, Blackgrass",blackgrass; [3],7
same,Blackgrass plant response rating,blackgrass; [4],0
same,Blackgrass plant response rating,blackgrass; [5],2
same,Blackgrass plant response rating,blackgrass; [6],0
same,"Plant response rating, Blackgrass",blackgrass; [7],5
same,Blackgrass plant response rating,blackgrass; [8],8
same,Wild oats plant response rating,wild oat; [1],0
same,Wild oats plant response rating,wild oat; [2],4
same,"Plant response rating, Wild oats",wild oat; [3],6
same,Wild oats plant response rating,wild oat; [4],0
same,Wild oats plant response rating,wild oat; [5],0
same,"Plant response rating, Wild oats",wild oat; [7],2
same,Giant foxtail plant response rating,giant foxtail; [1],8
same,Giant foxtail plant response rating,giant foxtail; [2],10
same,"Plant response rating, Giant foxtail",giant foxtail; [3],10
same,Giant foxtail plant response rating,giant foxtail; [4],0
same,Giant foxtail plant response rating,giant foxtail; [5],0
same,Giant foxtail plant response rating,giant foxtail; [6],10
same,"Plant response rating, Giant foxtail",giant foxtail; [7],2
same,Cocklebur plant response rating,cocklebur; [1],0
same,Cocklebur plant response rating,cocklebur; [2],0
same,"Plant response rating, Cocklebur",cocklebur; [3],0
same,Cocklebur plant response rating,cocklebur; [4],0
same,Cocklebur plant response rating,cocklebur; [5],0
same,Cocklebur plant response rating,cocklebur; [6],0
same,"Plant response rating, Cocklebur",cocklebur; [7],0
same,Cocklebur plant response rating,cocklebur; [8],0
same,Bedstraw plant response rating,bedstraw; [1],0
same,Bedstraw plant response rating,bedstraw; [2],0
same,"Plant response rating, Bedstraw",bedstraw; [3],0
same,Bedstraw plant response rating,bedstraw; [4],2
same,Bedstraw plant response rating,bedstraw; [5],2
same,Bedstraw plant response rating,bedstraw; [6],0
same,"Plant response rating, Bedstraw",bedstraw; [7],5
same,Bedstraw plant response rating,bedstraw; [8],6
same,Soybean plant response rating,soybean; [1],0
same,Soybean plant response rating,soybean; [2],0
same,"Plant response rating, Soybean",soybean; [3],0
same,Soybean plant response rating,soybean; [4],1
same,Soybean plant response rating,soybean; [5],1
same,Soybean plant response rating,soybean; [6],0
same,"Plant response rating, Soybean",soybean; [7],2
same,Wheat plant response rating,wheat; [1],0
same,Wheat plant response rating,wheat; [2],0
same,"Plant response rating, Wheat",wheat; [3],2
same,Wheat plant response rating,wheat; [4],0
same,Wheat plant response rating,wheat; [5],3
same,Wheat plant response rating,wheat; [6],0
same,"Plant response rating, Wheat",wheat; [7],3
same,B. signalgrass plant response rating,surinam grass; [1],0
same,B. signalgrass plant response rating,surinam grass; [2],8
same,"Plant response rating, B. signalgrass",surinam grass; [3],8
same,B. signalgrass plant response rating,surinam grass; [4],0
same,B. signalgrass plant response rating,surinam grass; [5],0
same,B. signalgrass plant response rating,surinam grass; [6],3
same,"Plant response rating, B. signalgrass",surinam grass; [7],0
same,B. signalgrass plant response rating,surinam grass; [8],2
same,S. Flatsedge plant response rating,smallflower flatsedge; [9],0
same,S. Flatsedge plant response rating,smallflower flatsedge; [10],0
same,S. Flatsedge plant response rating,smallflower flatsedge; [11],0
same,S. Flatsedge plant response rating,smallflower flatsedge; [12],0
same,Morningglory plant response rating,morningglory; [1],0
same,Morningglory plant response rating,morningglory; [2],0
same,"Plant response rating, Morningglory",morningglory; [3],0
same,Morningglory plant response rating,morningglory; [4],1
same,Morningglory plant response rating,morningglory; [5],3
same,Morningglory plant response rating,morningglory; [6],0
same,"Plant response rating, Morningglory",morningglory; [7],8
same,Corn plant response rating,corn; [1],0
same,Corn plant response rating,corn; [2],0
same,"Plant response rating, Corn",corn; [3],0
same,Corn plant response rating,corn; [4],0
same,Corn plant response rating,corn; [5],0
same,Corn plant response rating,corn; [6],0
same,"Plant response rating, Corn",corn; [7],0
same,Corn plant response rating,corn; [8],0
same,Barnyardgrass plant response rating,bamyardgrass; [9],0
same,Barnyardgrass plant response rating,bamyardgrass; [10],0
same,Barnyardgrass plant response rating,bamyardgrass; [11],0
same,Barnyardgrass plant response rating,bamyardgrass; [12],4
same,Rape plant response rating,rape; [1],0
same,Rape plant response rating,rape; [2],3
same,"Plant response rating, Rape",rape; [3],7
same,Rape plant response rating,rape; [4],0
same,Rape plant response rating,rape; [5],2
same,Rape plant response rating,rape; [6],0
same,"Plant response rating, Rape",rape; [7],5
same,Ducksalad plant response rating,duck salad; [9],0
same,Ducksalad plant response rating,duck salad; [10],0
same,Ducksalad plant response rating,duck salad; [11],0
same,Ducksalad plant response rating,duck salad; [12],0
same,Velvetleaf plant response rating,velvetleaf; [1],0
same,Velvetleaf plant response rating,velvetleaf; [2],3
same,"Plant response rating, Velvetleaf",velvetleaf; [3],5
same,Velvetleaf plant response rating,velvetleaf; [4],0
same,Velvetleaf plant response rating,velvetleaf; [5],0
same,Velvetleaf plant response rating,velvetleaf; [6],0
same,"Plant response rating, Velvetleaf",velvetleaf; [7],0
same,Crabgrass plant response rating,crabgrass; [1],0
same,Crabgrass plant response rating,crabgrass; [2],10
same,"Plant response rating, Crabgrass",crabgrass; [3],10
same,Crabgrass plant response rating,crabgrass; [4],0
same,Crabgrass plant response rating,crabgrass; [5],0
same,Crabgrass plant response rating,crabgrass; [6],2
same,"Plant response rating, Crabgrass",crabgrass; [7],2
